# From article PMC8019157 (Antiviral research, 2021)
# Columns and labels:
# [1] = target: T1, SERCA1 (Oryctolagus cuniculus, UniProt P04191); assay: ATP-dependent ^45Ca^2+ accumulation by longitudinal SR vesicles; assay type: biochemical, rabbit; settings: 0 – 31.2 μM, 20 min at 37°C
# [2] = target: T1, SERCA1; assay: SERCA1 ATPase activity; assay type: biochemical, rabbit
# [3] = target: RyR1 (Oryctolagus cuniculus, UniProt P11716); assay: Lipid bilayer single channel recordings of purified RyR1; assay type: biochemical, rabbit; settings: for increase in Po of RyR1 / Closed- maximally opened transitions (Hz) / Dwell time closed state / Dwell time open state / Po (+30 mV) / Close - maximally opened transitions (Hz): 3.0 μM cis Ca^2+
# [4] = EFV daily dose of up to 600 mg/day, cited from earlier work
# [5] = Drug dissolved in ethanol/water; assay type: physicochemical; settings: room temperature (22 °C), HPLC
# [6] = test system: C2C12 skeletal muscle myotubes; assay: Live-cell Ca^2+ imaging; assay type: cell-based, Mouse
# [7] = target: rabbit skeletal muscle ryanodine receptor Ca^2+ release channel (RyR1) (Oryctolagus cuniculus, UniProt P11716); assay: [^3H]ryanodine binding/displacement assay with SR membrane vesicles
# [8] = 6 μM, antiretroviral-naïve C2C12 myotubes
# [9] = 3 μM, antiretroviral-naïve C2C12 cells
# Sequence of RyR1 (P11716 whole entry): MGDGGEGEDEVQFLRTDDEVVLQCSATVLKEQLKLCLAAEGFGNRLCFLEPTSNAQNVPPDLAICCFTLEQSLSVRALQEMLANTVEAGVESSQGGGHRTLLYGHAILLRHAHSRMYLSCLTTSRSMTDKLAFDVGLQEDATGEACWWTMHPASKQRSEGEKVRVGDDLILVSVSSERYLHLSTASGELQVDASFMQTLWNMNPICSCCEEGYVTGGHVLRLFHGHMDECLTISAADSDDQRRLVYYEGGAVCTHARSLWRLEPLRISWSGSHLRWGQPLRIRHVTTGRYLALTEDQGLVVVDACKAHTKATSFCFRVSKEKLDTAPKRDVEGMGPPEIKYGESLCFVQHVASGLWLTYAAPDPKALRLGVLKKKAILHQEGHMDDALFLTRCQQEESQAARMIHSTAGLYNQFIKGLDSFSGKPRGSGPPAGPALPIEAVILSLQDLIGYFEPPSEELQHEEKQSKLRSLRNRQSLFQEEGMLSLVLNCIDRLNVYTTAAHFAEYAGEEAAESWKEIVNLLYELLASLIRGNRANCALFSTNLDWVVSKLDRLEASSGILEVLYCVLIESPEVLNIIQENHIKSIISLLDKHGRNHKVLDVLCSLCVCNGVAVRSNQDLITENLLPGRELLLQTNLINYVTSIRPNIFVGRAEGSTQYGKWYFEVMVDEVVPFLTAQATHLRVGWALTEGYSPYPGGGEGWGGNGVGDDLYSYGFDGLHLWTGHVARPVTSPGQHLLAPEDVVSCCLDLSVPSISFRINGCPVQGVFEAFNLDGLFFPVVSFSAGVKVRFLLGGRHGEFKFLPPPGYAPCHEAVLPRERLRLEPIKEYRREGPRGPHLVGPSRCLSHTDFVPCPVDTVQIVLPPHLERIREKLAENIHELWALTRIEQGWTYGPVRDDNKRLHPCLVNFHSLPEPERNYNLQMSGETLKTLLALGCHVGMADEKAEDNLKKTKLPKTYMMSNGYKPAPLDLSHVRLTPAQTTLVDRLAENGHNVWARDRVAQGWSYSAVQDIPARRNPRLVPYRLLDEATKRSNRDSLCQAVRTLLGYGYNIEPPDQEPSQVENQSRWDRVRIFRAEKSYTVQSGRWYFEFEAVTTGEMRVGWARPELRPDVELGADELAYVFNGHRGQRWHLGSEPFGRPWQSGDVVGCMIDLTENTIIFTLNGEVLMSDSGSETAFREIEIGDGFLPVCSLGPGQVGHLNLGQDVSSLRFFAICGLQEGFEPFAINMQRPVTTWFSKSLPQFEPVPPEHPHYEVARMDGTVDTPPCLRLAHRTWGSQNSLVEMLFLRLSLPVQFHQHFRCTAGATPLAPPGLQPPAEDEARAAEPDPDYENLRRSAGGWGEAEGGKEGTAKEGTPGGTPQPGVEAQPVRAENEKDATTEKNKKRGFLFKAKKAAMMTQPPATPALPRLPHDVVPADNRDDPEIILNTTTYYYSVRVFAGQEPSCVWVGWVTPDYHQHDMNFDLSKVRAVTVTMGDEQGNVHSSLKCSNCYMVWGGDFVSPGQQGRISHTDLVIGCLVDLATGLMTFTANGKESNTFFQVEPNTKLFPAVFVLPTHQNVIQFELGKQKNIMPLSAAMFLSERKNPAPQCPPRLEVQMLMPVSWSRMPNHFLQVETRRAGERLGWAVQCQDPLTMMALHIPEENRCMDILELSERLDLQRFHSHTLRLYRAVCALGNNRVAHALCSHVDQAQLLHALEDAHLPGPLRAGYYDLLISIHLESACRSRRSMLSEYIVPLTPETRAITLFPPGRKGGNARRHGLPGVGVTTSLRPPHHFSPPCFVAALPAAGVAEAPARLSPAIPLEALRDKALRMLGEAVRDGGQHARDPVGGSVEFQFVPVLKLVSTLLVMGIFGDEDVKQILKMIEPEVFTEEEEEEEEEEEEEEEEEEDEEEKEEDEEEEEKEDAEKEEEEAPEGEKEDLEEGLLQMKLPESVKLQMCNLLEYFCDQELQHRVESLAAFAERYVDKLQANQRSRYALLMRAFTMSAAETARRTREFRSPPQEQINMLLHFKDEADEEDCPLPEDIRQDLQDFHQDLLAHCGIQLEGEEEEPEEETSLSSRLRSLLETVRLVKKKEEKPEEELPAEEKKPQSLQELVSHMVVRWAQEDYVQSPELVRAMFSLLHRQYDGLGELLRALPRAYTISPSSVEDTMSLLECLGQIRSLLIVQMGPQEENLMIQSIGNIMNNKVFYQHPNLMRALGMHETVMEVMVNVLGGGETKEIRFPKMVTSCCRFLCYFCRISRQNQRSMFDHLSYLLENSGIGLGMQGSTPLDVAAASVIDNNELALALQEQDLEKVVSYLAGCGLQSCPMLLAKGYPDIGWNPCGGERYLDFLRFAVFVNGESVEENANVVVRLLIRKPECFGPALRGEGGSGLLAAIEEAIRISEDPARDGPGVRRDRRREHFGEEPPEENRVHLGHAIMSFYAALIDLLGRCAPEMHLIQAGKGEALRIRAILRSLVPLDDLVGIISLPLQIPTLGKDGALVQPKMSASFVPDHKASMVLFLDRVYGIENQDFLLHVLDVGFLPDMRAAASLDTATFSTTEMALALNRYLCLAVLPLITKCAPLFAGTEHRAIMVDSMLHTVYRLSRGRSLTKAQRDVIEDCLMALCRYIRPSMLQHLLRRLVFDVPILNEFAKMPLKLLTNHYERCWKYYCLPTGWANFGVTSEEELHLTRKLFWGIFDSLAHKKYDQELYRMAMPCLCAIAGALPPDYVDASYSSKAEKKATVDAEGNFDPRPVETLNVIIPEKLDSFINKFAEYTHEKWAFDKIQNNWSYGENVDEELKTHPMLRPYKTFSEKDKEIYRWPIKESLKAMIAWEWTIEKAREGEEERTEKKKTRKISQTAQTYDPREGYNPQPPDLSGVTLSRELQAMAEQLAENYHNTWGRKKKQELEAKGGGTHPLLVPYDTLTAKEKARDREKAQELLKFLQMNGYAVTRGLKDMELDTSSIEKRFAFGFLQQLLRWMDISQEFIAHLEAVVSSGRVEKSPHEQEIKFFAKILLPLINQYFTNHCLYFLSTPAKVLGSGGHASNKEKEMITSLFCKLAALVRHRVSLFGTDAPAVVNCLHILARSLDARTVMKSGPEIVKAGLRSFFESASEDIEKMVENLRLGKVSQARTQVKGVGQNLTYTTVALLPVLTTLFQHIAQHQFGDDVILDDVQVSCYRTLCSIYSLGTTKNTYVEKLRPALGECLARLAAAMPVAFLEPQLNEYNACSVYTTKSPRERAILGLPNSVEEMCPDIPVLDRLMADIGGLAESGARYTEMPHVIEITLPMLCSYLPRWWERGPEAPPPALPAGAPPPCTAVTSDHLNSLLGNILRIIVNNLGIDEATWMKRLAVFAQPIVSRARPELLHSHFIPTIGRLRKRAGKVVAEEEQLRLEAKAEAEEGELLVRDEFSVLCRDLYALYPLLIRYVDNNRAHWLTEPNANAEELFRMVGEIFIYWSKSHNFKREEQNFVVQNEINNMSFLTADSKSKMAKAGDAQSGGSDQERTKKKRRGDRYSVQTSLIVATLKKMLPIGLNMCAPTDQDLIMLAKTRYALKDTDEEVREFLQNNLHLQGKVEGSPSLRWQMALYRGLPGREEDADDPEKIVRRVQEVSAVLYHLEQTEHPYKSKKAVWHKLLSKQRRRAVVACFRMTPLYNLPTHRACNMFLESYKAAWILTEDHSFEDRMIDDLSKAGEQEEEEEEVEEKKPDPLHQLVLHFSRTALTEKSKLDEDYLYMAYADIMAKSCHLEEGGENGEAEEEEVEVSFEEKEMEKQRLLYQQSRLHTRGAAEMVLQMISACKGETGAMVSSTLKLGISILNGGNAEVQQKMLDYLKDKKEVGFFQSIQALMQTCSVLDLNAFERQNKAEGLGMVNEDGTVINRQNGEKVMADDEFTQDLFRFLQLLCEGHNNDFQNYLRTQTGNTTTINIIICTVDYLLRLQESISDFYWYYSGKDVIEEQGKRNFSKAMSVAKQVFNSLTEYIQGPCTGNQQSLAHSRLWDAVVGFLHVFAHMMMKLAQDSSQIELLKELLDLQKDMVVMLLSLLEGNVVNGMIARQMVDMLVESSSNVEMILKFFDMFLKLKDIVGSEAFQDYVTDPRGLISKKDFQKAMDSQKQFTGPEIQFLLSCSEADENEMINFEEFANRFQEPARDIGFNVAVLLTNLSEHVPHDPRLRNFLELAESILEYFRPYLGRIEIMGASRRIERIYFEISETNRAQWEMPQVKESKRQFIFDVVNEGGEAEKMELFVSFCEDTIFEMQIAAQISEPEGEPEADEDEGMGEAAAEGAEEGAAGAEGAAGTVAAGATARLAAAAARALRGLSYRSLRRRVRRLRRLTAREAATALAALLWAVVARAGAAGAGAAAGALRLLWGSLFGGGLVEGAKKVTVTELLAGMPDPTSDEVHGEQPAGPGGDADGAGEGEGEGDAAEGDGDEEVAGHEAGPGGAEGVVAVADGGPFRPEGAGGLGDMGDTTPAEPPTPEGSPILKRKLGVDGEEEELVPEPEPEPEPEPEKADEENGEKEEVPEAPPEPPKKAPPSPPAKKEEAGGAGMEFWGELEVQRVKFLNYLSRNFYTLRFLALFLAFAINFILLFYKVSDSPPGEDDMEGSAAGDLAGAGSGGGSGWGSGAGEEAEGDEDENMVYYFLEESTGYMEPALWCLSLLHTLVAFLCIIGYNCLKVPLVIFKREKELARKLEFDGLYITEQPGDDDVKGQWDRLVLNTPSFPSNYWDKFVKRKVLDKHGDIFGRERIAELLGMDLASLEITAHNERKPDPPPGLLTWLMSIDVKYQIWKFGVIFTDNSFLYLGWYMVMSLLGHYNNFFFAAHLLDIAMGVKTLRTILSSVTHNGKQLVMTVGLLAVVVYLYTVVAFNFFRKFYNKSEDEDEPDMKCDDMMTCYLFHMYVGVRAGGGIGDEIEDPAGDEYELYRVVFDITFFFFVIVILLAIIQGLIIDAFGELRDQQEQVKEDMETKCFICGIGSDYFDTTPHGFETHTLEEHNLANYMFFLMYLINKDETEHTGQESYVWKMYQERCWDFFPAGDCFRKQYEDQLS
# Sequence of rabbit skeletal muscle ryanodine receptor Ca^2+ release channel (RyR1) (P11716 whole entry): as above
smiles,measurement,setting,value
"O=C1Nc2ccc(Cl)cc2[C@@](C#CC2CC2)(C(F)(F)F)O1 [EFV, efavirenz]",effect on ATP-dependent Ca^2+ transport by SERCA1,[1],no effect
same,effect on ATPase activity of SERCA1,"[2]; 0 – 20 μM, 20 min at 37°C, with and without A23187",did not show any significant effect
same,time after which the channel went into an irreversible shut state,[3]; 31.2 nM cis EFV (so in the source),90 s
same,increase in Po of RyR1,"[3]; 240 nM cis EFV, within 15 sec",eight-fold
same,conductance of reduced conductance state R1,[3]; 2.5 μM cis EFV,233 ± 15 pS
same,"reduced conductance state R1, current amplitude",[3]; 2.5 μM cis EFV,33 % of maximum
same,duration of R1 state,"[3]; 2.5 μM cis EFV, +30 mV",~ 375 msec
same,duration of R1 state,"[3]; 2.5 μM cis EFV, −30 mV",~ 125 msec
same,conductance of reduced conductance state R2,[3]; 5.0 μM cis EFV,479 ± 24 pS
same,Closed- maximally opened transitions (Hz),[3]; Efavirenz 2.50 μM cis,1122 ±22 Hz
same,Dwell time closed state,[3]; Efavirenz 2.50 μM cis,1.38 ± 0.08
same,Dwell time open state,[3]; Efavirenz 2.50 μM cis,0.74 ± 0.06
same,Po (+30 mV),[3]; Efavirenz 2.50 μM cis,0.22 ± 0.01
same,Closed- maximally opened transitions (Hz),[3]; Efavirenz 5.00 μM cis,1046 ±30 Hz
same,Dwell time closed state,[3]; Efavirenz 5.00 μM cis,0.56 ± 0.07
same,Dwell time open state,[3]; Efavirenz 5.00 μM cis,1.01 ± 0.01
same,Po (+30 mV),[3]; Efavirenz 5.00 μM cis,0.59 ± 0.03
same,Closed- maximally opened transitions (Hz),[3]; Efavirenz 12.50 μM cis,1005 ±16 Hz
same,Dwell time closed state,[3]; Efavirenz 12.50 μM cis,0.53 ± 0.46
same,Dwell time open state,[3]; Efavirenz 12.50 μM cis,1.03 ± 0.05
same,Po (+30 mV),[3]; Efavirenz 12.50 μM cis,0.69 ± 0.04
same,Closed- maximally opened transitions (Hz),[3]; Efavirenz 20.00 μM cis,1060 ±25 Hz
same,Dwell time closed state,[3]; Efavirenz 20.00 μM cis,0.57 ± 0.06
same,Dwell time open state,[3]; Efavirenz 20.00 μM cis,0.99 ± 0.04
same,Po (+30 mV),[3]; Efavirenz 20.00 μM cis,0.67 ± 0.04
same,Closed- maximally opened transitions (Hz),[3]; Efavirenz 31.20 μM cis,1064 ±25 Hz
same,Dwell time closed state,[3]; Efavirenz 31.20 μM cis,1.53 ± 0.02
same,Dwell time open state,[3]; Efavirenz 31.20 μM cis,0.73 ± 0.06
same,Po (+30 mV),[3]; Efavirenz 31.20 μM cis,0.38 ± 0.01
same,Closed- maximally opened transitions (Hz),[3]; Efavirenz […] cis,1125 ±24 Hz
same,Dwell time closed state,[3]; Efavirenz […] cis,4.91 ± 0.43
same,Dwell time open state,[3]; Efavirenz […] cis,0.61 ± 0.07
same,Po (+30 mV),[3]; Efavirenz […] cis,0.08 ± 0.01
same,effect on Po of RyR1 of concentrations lower than 240 nM,[3]; up to 5 minutes after cis addition,no effect
same,plasma Cmax,[4],~ 2.5 μg/ml
same,Cmax,[4]; read-out: plasma Cmax,~8 µM
same,fraction dissolved in ethanol/water (1:1),[5],6.3%
same,stock concentration in ethanol/water (1:1),[5],1.8 mM
same,Ca^2+ transient in C2C12 cells pretreated with 50 μM ryanodine for 20 min,[6],attenuated Ca^2+ transient
same,duration of the global Ca^2+ transient,[6]; 6 μM,about 90 sec
same,effect on plasma membrane of C2C12 cells,[6]; 6 μM,blebbing
same,mean peak amplitude of the Ca^2+ transient,[6]; [8],3.9 ± 0.3 f.u.
same,rate of Ca^2+ rise,[6]; [8],0.14 ± 0.01 f.u./sec
same,rate of Ca^2+ transient decay,[6]; [8],0.04 ± 0.00 f.u./sec
same,response to a second dose in previously exposed C2C12 cells,[6]; second dose 6 μM,did not elicit a second Ca^2+ transient
same,Hill slope of displacement curve,[7],1.6
same,concentrations that enhanced [^3H]ryanodine binding to RyR1,[7]; 2 hr at 37°C,1 to 10 nM
"CC(C)c1nc(CN(C)C(=O)N[C@H](C(=O)N[C@@H](Cc2ccccc2)C[C@H](O)[C@H](Cc2ccccc2)NC(=O)OCc2cncs2)C(C)C)cs1 [RTV, ritonavir]",effect on ATP-dependent Ca^2+ transport by SERCA1,[1],dose-dependently inhibited
same,effect on ATPase activity of SERCA1,"[2]; 0.25 to 20 μM, presence or absence of A23187",dose-dependently decreased
same,increase in Po of RyR1,[3]; 720 nM cis RTV,three-fold
same,Po of RyR1,[3]; 3.2 μM cis RTV,0.15 ± 0.02
same,conductance of reduced conductance state R’2,[3]; 3.2 μM cis RTV,599 ± 24 pS
same,current amplitude of RyR1 (R’2),[3]; 3.2 μM cis RTV,84 % of maximum
same,reduction of current amplitude of RyR1,[3]; 3.2 μM cis RTV,16%
same,current amplitude of RyR1 (R’2),[3]; 31.2 μM cis RTV,84 % of maximum
same,Po of RyR1,"[3]; 31.2 μM cis RTV, +30 mV",0.92 ± 0.01
same,Close - maximally opened transitions (Hz),[3]; Ritonavir 2.50 μM cis,998 ± 89 Hz
same,Dwell time closed state,[3]; Ritonavir 2.50 μM cis,1.01 ± 0.22 ms
same,Dwell time open state,[3]; Ritonavir 2.50 μM cis,0.68 ± 0.06 ms
same,Po (+30 mV),[3]; Ritonavir 2.50 μM cis,0.29 ± 0.03
same,Close - maximally opened transitions (Hz),[3]; Ritonavir 5.00 μM cis,762 ± 45 Hz
same,Dwell time open state,[3]; Ritonavir 5.00 μM cis,1.22 ± 0.15 ms
same,Po (+30 mV),[3]; Ritonavir 5.00 μM cis,0.07 ± 0.04
same,Close - maximally opened transitions (Hz),[3]; Ritonavir 12.50 μM cis,828 ± 40 Hz
same,Dwell time open state,[3]; Ritonavir 12.50 μM cis,1.64 ± 0.03 ms
same,Po (+30 mV),[3]; Ritonavir 12.50 μM cis,0.11 ± 0.03
same,Close - maximally opened transitions (Hz),[3]; Ritonavir 20.00 μM cis,848 ± 37 Hz
same,Dwell time closed state,[3]; Ritonavir 20.00 μM cis,10.57 ± 1.24 ms
same,Dwell time open state,[3]; Ritonavir 20.00 μM cis,1.01 ± 0.06 ms
same,Po (+30 mV),[3]; Ritonavir 20.00 μM cis,0.11 ± 0.02
same,Close - maximally opened transitions (Hz),[3]; Ritonavir 31.20 μM cis,880 ± 30 Hz
same,Dwell time closed state,[3]; Ritonavir 31.20 μM cis,0.72 ± 0.09 ms
same,Dwell time open state,[3]; Ritonavir 31.20 μM cis,1.13 ± 0.09 ms
same,Po (+30 mV),[3]; Ritonavir 31.20 μM cis,0.92 ± 0.01
same,Close - maximally opened transitions (Hz),[3]; Ritonavir […] cis,773 ± 47 Hz
same,Dwell time closed state,[3]; Ritonavir […] cis,4.25 ± 0.11 ms
same,Dwell time open state,[3]; Ritonavir […] cis,0.35 ± 0.02 ms
same,Po (+30 mV),[3]; Ritonavir […] cis,0.07 ± 0.01
same,effect on Po of RyR1 of concentrations lower than 720 nM,[3]; up to five minutes after addition,did not elicit changes in the Po
same,fraction dissolved in ethanol/water (1:1),[5],1.5%
same,stock concentration in ethanol/water (1:1),[5],0.39 mM
same,Ca^2+ transient in C2C12 cells pretreated with 50 μM ryanodine for 20 min,[6],attenuated the amplitude
same,duration of the Ca^2+ transient,[6]; 3 μM,about 20 sec
same,effect on plasma membrane of C2C12 cells,[6]; 3 μM,blebbing
same,"rate of decay of the Ca^2+ transient, times faster than that of EFV",[6]; 3 μM,3 x
same,mean rate of Ca^2+ rise,[6]; [9],0.54 ± 0.06 f.u./sec
same,peak amplitude of the Ca^2+ transient,[6]; [9],4.3 ± 0.2 f.u
same,response to a second dose in previously exposed C2C12 cells,[6]; second dose 3 μM,triggered a second Ca^2+ transient
same,maximum percent enhancement of [^3H]ryanodine binding over control,"[7]; 6.7 nM [^3H]ryanodine, 2 hr at 37°C",62.3 ± 6.2%
same,concentrations that enhanced [^3H]ryanodine binding to RyR1,[7]; 2 hr at 37°C,1 to 60 nM
